Assay: scale inhibition test with respect to calcium carbonate (soluble calcium retained, 24 h at 80° C.)
Type: physicochemical
Settings: 10 ppm based on active acid, 0.02M CaCl2 + 0.04M sodium bicarbonate/0.96M sodium chloride, 24-hour period, blank 12%
Experimental: To these solutions is added the candidate inhibitor in various concentrations. Fifty-ml samples of a 0.04M sodium bicarbonate/0.96M sodium chloride solution are then added with stirring. A total hardness determination is made on the mixture by adding excess standard EDTA to a sample and back titrating with standard Mg^++ solution in the presence of Eriochrome Black T indicator. The samples are placed in an 80° C. oven and 10-ml samples taken periodically from each bottle, filtered through a millipore filter, and the total hardness of the filtrates determined by titration. A blank with no inhibitor is run in an identical manner. The relative inhibition effects are shown by determining the amount of hardness (as soluble calcium) before and after heating for a 24-hour period. The amount of soluble calcium as a percent of that originally present is indicated as % inhibition.
All products and comparative runs were made using a concentration of 10 ppm based on active acid.

With C[N+](C)(C)CC(O)CN(CCN(CP(=O)(O)O)CP(=O)(O)O)CP(=O)(O)O (stereo not shown) [Product Ex. 1] the “% Inhibition (amount of soluble calcium as a percent of that originally present)” value was 41.8%.

From US4459241A, “Compounds containing quaternary ammonium and methylenephosphonic acid groups” (The Dow Chemical Company, priority 1983, dated 1984)
